Several values for one entry are separate records, joined by “and”; a condition that tells them apart may be missing. Identical values can stand only once.
Columns and labels:
[1] = Prodrug aqueous stability at pH 7.4, 6.0 and 1.2; assay type: physicochemical
BlaC = settings: cited from earlier work
[2] = cited from earlier work
[3] = cited from earlier work; remark: listed apart in the source

CC(OC(=O)O[C@H]1CCCCc2ccccc21)OC(=O)C1=C(S[C@@H]2CN[C@H](C(=O)N(C)C)C2)[C@H](C)[C@@H]2[C@@H]([C@@H](C)O)C(=O)N12 (stereo partly drawn) [Compound 23a, (1S,1′S/R)-Benzosuber-1-yloxycarbonyloxyethyl (1R,5S,6S)-2-{[(2S,4S)-2-(N,N-dimethylcarbamoyl)pyrrolidin-4-yl]thio}-6-[(1R)-1-hydroxyethyl]-1-methylcarbapen-2-em-3-carboxylate]
improvement of stability relative to prodrug 19 ([1]; 100 µM): about 2 fold

CC(=O)N1C[C@@H](SC2=C(C(=O)OCOC(=O)O[C@H]3CCCCc4ccccc43)N3C(=O)[C@H]([C@@H](C)O)[C@H]3[C@H]2C)C[C@H]1C(=O)N(C)C [Compound 24a, (S)-Benzosuber-1-yloxycarbonyloxymethyl (1R,5S,6S)-2-{[(2S,4S)-1-acetyl-2-(N,N-dimethylcarbamoyl)pyrrolidin-4-yl]thio}-6-[(1R)-1-hydroxyethyl]-1-methylcarbapen-2-em-3-carboxylate]
change in the hydrolysis rate relative to prodrug 19 ([1]; N-acetyl derivative, aqueous buffers): no significant change

CC(C)OC(=O)OC(C)OC(=O)C1=C(S[C@@H]2CN[C@H](C(=O)N(C)C)C2)[C@H](C)[C@@H]2[C@@H]([C@@H](C)O)C(=O)N12 (some centres unmarked) [Compound 2]
% of each diastereomer hydrolyzed to 1 ([1]; physiological pH 7.4, period of 2 hours): 10% and 13%

O=C(O)[C@H]1/C(=C/CO)O[C@@H]2CC(=O)N21 [clavulanate]
inhibition of BlaC (BlaC): irreversibly inhibited

C[C@@H](O)[C@H]1C(=O)N2C(C(=O)O)=C(S[C@@H]3CN[C@H](C(=O)N(C)C)C3)[C@H](C)[C@H]12 [Meropenem]
Log D [2]: < −2.5
oral absorption [3]: negligible

C[C@@H](O)[C@H]1C(=O)N2C(C(=O)OCOC(=O)O[C@@H]3CCCCc4ccccc43)=C(S[C@@H]3CN[C@H](C(=O)N(C)C)C3)[C@H](C)[C@H]12 [Compound 22, (R)-Benzosuber-1-yloxycarbonyloxymethyl (1R,5S, 6S)-2-{[(2S,4S)-2-(N,N-dimethylcarbamoyl)pyrrolidin-4-yl]thio}-6-[(1R)-1-hydroxyethyl]-1-methylcarbapen-2-em-3-carboxylate]
times more stable to hydrolysis compared with 1-tetralyl (18 and 21) and 1-indanyl (17 and 20) prodrugs ([1]; intestinal pH): 37 times
times more stable to hydrolysis compared with 1-tetralyl (18 and 21) and 1-indanyl (17 and 20) prodrugs ([1]; physiological pH): 20 times

C[C@@H](O)[C@H]1C(=O)N2C(C(=O)OCOC(=O)O[C@H]3CCCCc4ccccc43)=C(S[C@@H]3CN[C@H](C(=O)N(C)C)C3)[C@H](C)[C@H]12 [Compound 19, (S)-Benzosuber-1-yloxycarbonyloxymethyl (1R, 5S,6S)-2-{[(2S,4S)-2-(N,N-dimethylcarbamoyl)pyrrolidin-4-yl]thio}-6-[(1R)-1-hydroxyethyl]-1-methylcarbapen-2-em-3-carboxylate]
times more stable to hydrolysis compared with 1-tetralyl (18 and 21) and 1-indanyl (17 and 20) prodrugs ([1]; intestinal pH): 37 times
times more stable to hydrolysis compared with 1-tetralyl (18 and 21) and 1-indanyl (17 and 20) prodrugs ([1]; physiological pH): 20 times

C[C@@H](O)[C@H]1C(=O)N2C(C(=O)OCOC(=O)O[C@@H]3CCc4ccccc43)=C(S[C@@H]3CN[C@H](C(=O)N(C)C)C3)[C@H](C)[C@H]12 [Compound 20, (R)-Indan-1-yloxycarbonyloxymethyl (1/R, 5S,6S)-2-{[(2S,4S)-2-(N,N-dimethylcarbamoyl)pyrrolidin-4-yl]thio}-6-[(1/R)-1-hydroxyethyl]-1-methylcarbapen-2-em-3-carboxylate]
half-life at 100 µM ([1]; buffer, pH 7.4): < 1 min

Reference: PMC3740032 (Bioorganic & medicinal chemistry, 2013)
